Data set [1] deals with Daudi non-Hodgkin lymphoma xenograft model. Set-up: method as in PMID 22693356. To be noted: cited from earlier work.
Data set [2] deals with HDACs. The experiment in a line: HDACs inhibition fluorescence assay (HeLa nuclear extracts). To be noted: substrate Boc-Lys(Ac)-AMC, mean of duplicate experiments. It counts as biochemical. As for the experimental part: (§1) To investigate the HDAC and Mnk inhibitory potency of the target compounds, the inhibition rate of Mnk1 and Mnk2 at 1 μM were determined using homogeneous time-resolved fluorescence assay (HTRF) and the IC50 value against HDAC was determined by fluorescence analysis.
The general procedure for the enzyme assay was carried out according to the published protocol with slight modification. For the HDACs assay, HeLa nuclear extracts (Enzo Life Sciences, NY, USA) were used as a source of histone deacetylase. All reactions were performed in the black half area 96-well microplates. A serial dilution of the inhibitors and enzymes were pre-incubated at 25 °C for 15 min, and then fluorogenic substrate Boc-Lys(Ac)-AMC was added. After incubation at 37 °C for 60 min, the mixture was stopped by the addition of […] of developer containing trypsin and vorinostat for 10 min. Fluorescence intensity was measured using a Varioskan Flash Station (Thermo Scientific, MA, USA) at excitation and emission wavelengths of 355 (or 360 for the HeLa NuEx) and 460 nm, respectively. The IC50 values were extracted by curve fitting the dose/response slopes.

In data set [3] the target is Mnk2 (Homo sapiens, UniProt Q9HBH9). The experiment in a line: Mnks inhibition HTRF assay (Mnk2). The data set is classed as biochemical. The conditions noted are these: compound at 1 μM, 39.2 µM ATP, mean of triple independent experiments, read-out: %inhib. 1 μM Mnk2. As for the experimental part:
as §1
1.00 ng of Mnk1 or Mnk2 was incubated with different concentrations (10,000 nM, 1000 nM, 100 nM, 10 nM, and 1 nM) of test compounds in an 10 µL reaction mixture (Mnk1: 1 µM substrate S1, 10 mM MgCl2, 121 µM ATP, 1 × KinEASE enzymatic buffer and 1 mM dithiothreitol (DTT Mnk2: 1 µM substrate S1, 10 mM MgCl2, 39.2 µM ATP, 1 × KinEASE enzymatic buffer and 1 mM DTT for 60 min at 25 °C. The mixture of 5 µL SA-XL665 and 5 µL STK Ab detection reagents following the kit protocol was added to terminate the reaction.

For data set [4], the system named is PC-3 cells. The experiment in a line: Anti-proliferative MTT assay. It counts as cell-based. To be noted: Homo sapiens, 96 h incubation, mean of three experiments. The protocol: As Mnks and HDACs are overexpressed in prostate cancer, the GI50 values of the target compounds against PC-3 cell line were determined by an MTT assay. […] When the zinc-binding motif was hydroxamic acid, the anti-proliferative effect was better than o-phenylenediamine (except A03 and A04). The length of the flexible linker has a significant influence on the anti-proliferative activity: compounds containing a NH unite and 6 methylene groups were greatly better than compounds containing a NH unite and 5 methylene groups (A11 vs. A12).
The human prostatic cancer PC-3 cell line was cultured in RPMI1640 with 10% (v/v) heat-inactivated fetal bovine serum. The anti-proliferative activity of synthetic compounds were evaluated by the methylthiazolyltetrazolium bromide (MTT) assay. Cells (2 × 10^4 cells/well) were incubated in a humidified atmosphere with 5% CO2 at 37 °C for 24 h, then various concentrations of each compound mixed in […] medium were added to each well. After incubated for another 96 h, MTT solution (50 μL of 2 mg/mL) was added to each well and incubated for an additional 4 h. The medium was removed by aspiration and the cells were dissolved in […] DMSO. The absorbance at 570 nm was measured in the 96-well plate reader. Growth inhibition was calculated and expressed as the ratio of the cell number in the treated group to that of the untreated group. The GI50 values were calculated according to inhibition ratios. All experiments were performed three times independently, and the results were reported presented as the mean.

The target of data set [5] is T1, Mnk1 (Homo sapiens, UniProt Q9BUB5).
T1 construct: 1.00 ng of Mnk1 or Mnk2 was incubated with different concentrations
T1 sequence (Q9BUB5 whole entry): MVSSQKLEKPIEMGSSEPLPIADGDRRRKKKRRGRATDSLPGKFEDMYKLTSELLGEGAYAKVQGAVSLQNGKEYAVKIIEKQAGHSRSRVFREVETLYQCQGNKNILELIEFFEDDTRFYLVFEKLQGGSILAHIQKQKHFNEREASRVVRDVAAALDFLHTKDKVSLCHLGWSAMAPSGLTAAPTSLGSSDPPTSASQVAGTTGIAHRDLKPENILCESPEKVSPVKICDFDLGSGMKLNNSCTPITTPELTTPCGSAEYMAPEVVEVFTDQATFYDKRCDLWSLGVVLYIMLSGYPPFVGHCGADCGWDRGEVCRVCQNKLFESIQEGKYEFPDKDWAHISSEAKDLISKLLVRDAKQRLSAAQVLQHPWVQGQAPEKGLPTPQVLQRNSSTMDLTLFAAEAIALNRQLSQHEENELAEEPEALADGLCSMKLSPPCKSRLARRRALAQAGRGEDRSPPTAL
Description: Mnks inhibition HTRF assay (Mnk1). The data set is classed as biochemical. The conditions noted are these: compound at 1 μM, 121 µM ATP, mean of triple independent experiments, read-out: %inhib. 1 μM Mnk1.

We go through four compounds from PMC7571151, “Design, Synthesis and Bioactivity Evaluation of 4,6-Disubstituted Pyrido[3,2-d]pyrimidine Derivatives as Mnk and HDAC Inhibitors” (Molecules, 2020).

Mnk2, sequence (Q9HBH9 whole entry): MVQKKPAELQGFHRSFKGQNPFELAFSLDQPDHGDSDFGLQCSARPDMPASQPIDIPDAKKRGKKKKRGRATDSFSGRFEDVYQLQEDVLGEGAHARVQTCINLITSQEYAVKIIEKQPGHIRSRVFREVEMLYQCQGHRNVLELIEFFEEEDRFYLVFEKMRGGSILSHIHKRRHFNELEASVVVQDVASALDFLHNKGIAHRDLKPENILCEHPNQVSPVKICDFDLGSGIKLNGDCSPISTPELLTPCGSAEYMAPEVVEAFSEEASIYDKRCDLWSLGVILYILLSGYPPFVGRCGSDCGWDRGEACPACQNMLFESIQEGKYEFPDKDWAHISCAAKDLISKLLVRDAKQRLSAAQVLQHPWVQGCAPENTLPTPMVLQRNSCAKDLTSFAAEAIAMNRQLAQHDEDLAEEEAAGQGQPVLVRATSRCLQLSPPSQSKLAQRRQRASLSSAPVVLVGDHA

Turning to `COc1ccc(-c2nc(N3CCOCC3)c3sc(CN(C)c4ncc(C(=O)NO)cn4)cc3n2)cn1` [CUDC-907], the tumor growth result in data set [1] (Daudi non-Hodgkin lymphoma xenograft model) was “inhibited tumor growth in a dose-dependent manner”. In data set [1] (in vivo anti-tumor activity studies), the “Ac-H3 and p-AKT levels” value was “accumulation of Ac-H3 and a decrease in p-AKT levels”.

On to `Nc1ccccc1NC(=O)/C=C/c1ccc(-c2ccc3ncnc(Nc4ccc(F)cc4)c3n2)cc1` [Compound A02, (E)-N-(2-aminophenyl)-3-(4-(4-((4-fluorophenyl)amino)pyrido[3,2-d]pyrimidin-6-yl)phenyl)acrylamide], for which the melting point fell in the range of 263.8 to 265.5 °C. Moreover, in data set [2], the half-maximal inhibitory concentration (IC50) is over 10 µM. For the same compound, in data set [3], the inhibition at 1 µM was determined as 52%. The compound also came in with a GI50 in data set [4] of over 20 µM. Further, the inhibition at 1 µM in data set [5] stood at 28%.

The compound `O=C(NO)c1ccc(CNc2ccc3ncnc(Nc4ccc(F)cc4)c3n2)cc1` [Compound A10, 4-(((4-((4-Fluorophenyl)amino)pyrido[3,2-d]pyrimidin-6-yl)amino)methyl)-N-hydroxybenzamide] showed a melting point of 197.7 to 199.3 °C. Also, the half-maximal inhibitory concentration (IC50) in data set [2] was found to be 2.18 µM. Further, in data set [3], the inhibition at 1 µM was 43%. The compound further yielded a concentration for 50% growth inhibition (GI50) in data set [4] of 18.3 µM. The inhibition at 1 µM in data set [5] was found to be 24%.

The compound `O=C(CCCCCCNc1ccc2ncnc(Nc3ccc(F)c(Cl)c3)c2n1)NO` [Compound A19, 7-((4-((3-Chloro-4-fluorophenyl)amino)pyrido[3,2-d]pyrimidin-6-yl)amino)-N-hydroxyheptanamide] yielded a melting point of 207.9 to 208.5 °C. In data set [2], this compound showed a half-maximal inhibitory concentration (IC50) of 1.18 µM. Further, the inhibition at 1 µM in data set [3] came to 56%. The same compound registered a 50% growth inhibitory concentration (GI50) in data set [4] of over 20 µM. For the same compound, in data set [5], the inhibition at 1 µM worked out at 16%.
